Laboratory results as given in US20250235543A1, “MODIFIED PROTEINS AND PROTEIN DEGRADERS” (Cullgen (Shanghai), Inc., priority 2021, published 2025).

Tested on: P300/CBP
Experiment: P300/CBP cellular protein degradation
Assay type: cell-based
Method: Cultured cells were washed with cold PBS once and lysed in cold RIPA buffer supplemented with protease inhibitors and phosphatase inhibitors (Beyotime Biotechnology). The solutions were then incubated at 4° C. for 30 min with gentle agitation to fully lysed cells. Cell lysates were centrifuged at 13,000 rpm for 10 min at 4° C. and pellets were discarded. Total protein concentrations in the lysates were determined following BCA assays (Beyotime Biotechnology). Cell lysates were mixed with Laemmli loading buffer and heated at 99° C. for 5 min. Proteins were resolved on SDS-PAGE and visualized using Western ECL Substrate kits on a ChemiDoc MP Imaging system (Bio-Rad). Protein bands were quantitated using the Image Lab software provided by Bio-Rad.

SMILES | P300/CBP Degradation (100 nM)
CC(=O)N1CCc2c(c(N3CCCc4cc(-c5cnn(C)c5)c(C(F)F)cc43)nn2C2CCN(CC(=O)NCCCCCNc3ccc(C(=O)Nc4ncc(C)s4)c(C)c3)CC2)C1 [CPD-192, 4-((5-(2-(4-(5-Acetyl-3-(7-(difluoromethyl)-6-(1-methyl-1H-pyrazol-4-yl)-3,4-dihydroquinolin-1(2H)-yl)-4,5,6,7-tetrahydro-1H-pyrazolo[4,3-c]pyridin-1-yl)piperidin-1-yl)acetamido)pentyl)amino)-2-methyl-N-(5-methylthiazol-2-yl)benzamide] | D (degradation activity < 30%)
CC(=O)N1CCc2c(c(N3CCCc4cc(-c5cnn(C)c5)c(C(F)F)cc43)nn2C2CCN(CC(=O)NCCNc3ccc(C(=O)Nc4ncc(C)s4)c(C)c3)CC2)C1 [CPD-189, 4-((2-(2-(4-(5-Acetyl-3-(7-(difluoromethyl)-6-(1-methyl-1H-pyrazol-4-yl)-3,4-dihydroquinolin-1(2H)-yl)-4,5,6,7-tetrahydro-1H-pyrazolo[4,3-c]pyridin-1-yl)piperidin-1-yl)acetamido)ethyl)amino)-2-methyl-N-(5-methylthiazol-2-yl)benzamide] | D (degradation activity < 30%)
CC(=O)N1CCc2c(c(N3CCCc4cc(-c5cnn(C)c5)c(C(F)F)cc43)nn2C2CCN(C(=O)CCCCCC(=O)Nc3ccccc3C(=O)Nc3nc(C)c([N+](=O)[O-])s3)CC2)C1 [CPD-202, 2-(7-(4-(5-Acetyl-3-(7-(difluoromethyl)-6-(1-methyl-1H-pyrazol-4-yl)-3,4-dihydroquinolin-1(2H)-yl)-4,5,6,7-tetrahydro-1H-pyrazolo[4,3-c]pyridin-1-yl)piperidin-1-yl)-7-oxoheptanamido)-N-(4-methyl-5-nitrothiazol-2-yl)benzamide] | D (degradation activity < 30%)
CC(=O)N1CCc2c(c(N3CCCc4cc(-c5cnn(C)c5)c(C(F)F)cc43)nn2C2CCN(C(=O)CCCC(=O)Nc3ccccc3C(=O)Nc3nc(C)c([N+](=O)[O-])s3)CC2)C1 [CPD-200, 2-(5-(4-(5-Acetyl-3-(7-(difluoromethyl)-6-(1-methyl-1H-pyrazol-4-yl)-3,4-dihydroquinolin-1(2H)-yl)-4,5,6,7-tetrahydro-1H-pyrazolo[4,3-c]pyridin-1-yl)piperidin-1-yl)-5-oxopentanamido)-N-(4-methyl-5-nitrothiazol-2-yl)benzamide] | D (degradation activity < 30%)
CC(=O)N1CCc2c(c(N3CCCc4cc(-c5cnn(C)c5)c(C(F)F)cc43)nn2C2CCN(C(=O)CCCCC(=O)Nc3ccccc3C(=O)Nc3nc(C)c([N+](=O)[O-])s3)CC2)C1 [CPD-201, 2-(6-(4-(5-Acetyl-3-(7-(difluoromethyl)-6-(1-methyl-1H-pyrazol-4-yl)-3,4-dihydroquinolin-1(2H)-yl)-4,5,6,7-tetrahydro-1H-pyrazolo[4,3-c]pyridin-1-yl)piperidin-1-yl)-6-oxohexanamido)-N-(4-methyl-5-nitrothiazol-2-yl)benzamide] | D (degradation activity < 30%)
CC(=O)N1CCc2c(c(N3CCCc4cc(-c5cnn(C)c5)c(C(F)F)cc43)nn2C2CCN(C(=O)CCC(=O)Nc3ccccc3C(=O)Nc3nc(C)c([N+](=O)[O-])s3)CC2)C1 [CPD-199, 2-(4-(4-(5-Acetyl-3-(7-(difluoromethyl)-6-(1-methyl-1H-pyrazol-4-yl)-3,4-dihydroquinolin-1(2H)-yl)-4,5,6,7-tetrahydro-1H-pyrazolo[4,3-c]pyridin-1-yl)piperidin-1-yl)-4-oxobutanamido)-N-(4-methyl-5-nitrothiazol-2-yl)benzamide] | D (degradation activity < 30%)
CC(=O)N1CCc2c(c(N3CCCc4cc(-c5cnn(C)c5)c(C(F)F)cc43)nn2C2CCN(CC(=O)NCCOCCNc3ccc(C(=O)Nc4ncc(C)s4)c(C)c3)CC2)C1 [CPD-197, 4-((2-(2-(2-(4-(5-Acetyl-3-(7-(difluoromethyl)-6-(1-methyl-1H-pyrazol-4-yl)-3,4-dihydroquinolin-1(2H)-yl)-4,5,6,7-tetrahydro-1H-pyrazolo[4,3-c]pyridin-1-yl)piperidin-1-yl)acetamido)ethoxy)ethyl)amino)-2-methyl-N-(5-methylthiazol-2-yl)benzamide] | D (degradation activity < 30%)
CC(=O)N1CCc2c(c(N3CCCc4cc(-c5cnn(C)c5)c(C(F)F)cc43)nn2C2CCN(C(=O)CCCCCCCCC(=O)Nc3ccccc3C(=O)Nc3nc(C)c([N+](=O)[O-])s3)CC2)C1 [CPD-205, 2-(10-(4-(5-Acetyl-3-(7-(difluoromethyl)-6-(1-methyl-1H-pyrazol-4-yl)-3,4-dihydroquinolin-1(2H)-yl)-4,5,6,7-tetrahydro-1H-pyrazolo[4,3-c]pyridin-1-yl)piperidin-1-yl)-10-oxodecanamido)-N-(4-methyl-5-nitrothiazol-2-yl)benzamide] | D (degradation activity < 30%)
CC(=O)N1CCc2c(c(N3CCCc4cc(-c5cnn(C)c5)c(C(F)F)cc43)nn2C2CCN(CC(=O)NCCC(=O)Nc3ccccc3C(=O)Nc3nc(C)c([N+](=O)[O-])s3)CC2)C1 [CPD-210, 2-(3-(2-(4-(5-Acetyl-3-(7-(difluoromethyl)-6-(1-methyl-1H-pyrazol-4-yl)-3,4-dihydroquinolin-1(2H)-yl)-4,5,6,7-tetrahydro-1H-pyrazolo[4,3-c]pyridin-1-yl)piperidin-1-yl)acetamido)propanamido)-N-(4-methyl-5-nitrothiazol-2-yl)benzamide] | D (degradation activity < 30%)
CC(=O)N1CCc2c(c(N3CCCc4cc(-c5cnn(C)c5)c(C(F)F)cc43)nn2C2CCN(CC(=O)NCCOCCOCCNc3ccc(C(=O)Nc4ncc(C)s4)c(C)c3)CC2)C1 [CPD-198, 4-((2-(2-(2-(2-(4-(5-Acetyl-3-(7-(difluoromethyl)-6-(1-methyl-1H-pyrazol-4-yl)-3,4-dihydroquinolin-1(2H)-yl)-4,5,6,7-tetrahydro-1H-pyrazolo[4,3-c]pyridin-1-yl)piperidin-1-yl)acetamido)ethoxy)ethoxy)ethyl)amino)-2-methyl-N-(5-methylthiazol-2-yl)benzamide] | D (degradation activity < 30%)
CC(=O)N1CCc2c(c(N3CCCc4cc(-c5cnn(C)c5)c(C(F)F)cc43)nn2C2CCN(CC(=O)NCC(=O)Nc3ccccc3C(=O)Nc3nc(C)c([N+](=O)[O-])s3)CC2)C1 [CPD-209, 2-(2-(2-(4-(5-Acetyl-3-(7-(difluoromethyl)-6-(1-methyl-1H-pyrazol-4-yl)-3,4-dihydroquinolin-1(2H)-yl)-4,5,6,7-tetrahydro-1H-pyrazolo[4,3-c]pyridin-1-yl)piperidin-1-yl)acetamido)acetamido)-N-(4-methyl-5-nitrothiazol-2-yl)benzamide] | D (degradation activity < 30%)
CC(=O)N1CCc2c(c(N3CCCc4cc(-c5cnn(C)c5)c(C(F)F)cc43)nn2C2CCN(CC(=O)NCCCCCCCCCNc3ccc(C(=O)Nc4ncc(C)s4)c(C)c3)CC2)C1 [CPD-196, 4-((9-(2-(4-(5-Acetyl-3-(7-(difluoromethyl)-6-(1-methyl-1H-pyrazol-4-yl)-3,4-dihydroquinolin-1(2H)-yl)-4,5,6,7-tetrahydro-1H-pyrazolo[4,3-c]pyridin-1-yl)piperidin-1-yl)acetamido)nonyl)amino)-2-methyl-N-(5-methylthiazol-2-yl)benzamide] | D (degradation activity < 30%)
CC(=O)N1CCc2c(c(N3CCCc4cc(-c5cnn(C)c5)c(C(F)F)cc43)nn2C2CCN(CC(=O)NCCCCCCC(=O)Nc3ccccc3C(=O)Nc3nc(C)c([N+](=O)[O-])s3)CC2)C1 [CPD-214, 2-(7-(2-(4-(5-Acetyl-3-(7-(difluoromethyl)-6-(1-methyl-1H-pyrazol-4-yl)-3,4-dihydroquinolin-1(2H)-yl)-4,5,6,7-tetrahydro-1H-pyrazolo[4,3-c]pyridin-1-yl)piperidin-1-yl)acetamido)heptanamido)-N-(4-methyl-5-nitrothiazol-2-yl)benzamide] | D (degradation activity < 30%)
CC(=O)N1CCc2c(c(N3CCCc4cc(-c5cnn(C)c5)c(C(F)F)cc43)nn2C2CCN(C(=O)CCCCCCCCCCCC(=O)Nc3ccccc3C(=O)Nc3nc(C)c([N+](=O)[O-])s3)CC2)C1 [CPD-208, 2-(13-(4-(5-Acetyl-3-(7-(difluoromethyl)-6-(1-methyl-1H-pyrazol-4-yl)-3,4-dihydroquinolin-1(2H)-yl)-4,5,6,7-tetrahydro-1H-pyrazolo[4,3-c]pyridin-1-yl)piperidin-1-yl)-13-oxotridecanamido)-N-(4-methyl-5-nitrothiazol-2-yl)benzamide] | D (degradation activity < 30%)
CC(=O)N1CCc2c(c(N3CCCc4cc(-c5cnn(C)c5)c(C(F)F)cc43)nn2C2CCN(CC(=O)NCCCC(=O)Nc3ccccc3C(=O)Nc3nc(C)c([N+](=O)[O-])s3)CC2)C1 [CPD-211, 2-(4-(2-(4-(5-Acetyl-3-(7-(difluoromethyl)-6-(1-methyl-1H-pyrazol-4-yl)-3,4-dihydroquinolin-1(2H)-yl)-4,5,6,7-tetrahydro-1H-pyrazolo[4,3-c]pyridin-1-yl)piperidin-1-yl)acetamido)butanamido)-N-(4-methyl-5-nitrothiazol-2-yl)benzamide] | D (degradation activity < 30%)
CC(=O)N1CCc2c(c(N3CCCc4cc(-c5cnn(C)c5)c(C(F)F)cc43)nn2C2CCN(CC(=O)NCCCCCCCCNc3ccc(C(=O)Nc4ncc(C)s4)c(C)c3)CC2)C1 [CPD-195, 4-((8-(2-(4-(5-Acetyl-3-(7-(difluoromethyl)-6-(1-methyl-1H-pyrazol-4-yl)-3,4-dihydroquinolin-1(2H)-yl)-4,5,6,7-tetrahydro-1H-pyrazolo[4,3-c]pyridin-1-yl)piperidin-1-yl)acetamido)octyl)amino)-2-methyl-N-(5-methylthiazol-2-yl)benzamide] | D (degradation activity < 30%)
